From ChEMBL document CHEMBL1201862, “PubChem BioAssay data set” (2004)
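Where inhibition never reached the appropriate level, the endpoint shown equals the highest concentration tested. Otherwise, values were interpolated linearly from a five-concentration, 48-hour dose response in 96-well plates. The concentration for 50% growth inhibition is given as GI50.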 Active and inactive are the calls of the source. Rule as the data show it: active = GI50 up to about 1.1 µM and inactive = higher.

Key:
Assay in all cases: NCI anticancer screen, dose series, 48 h
[1] = tested on: COLO 205
[2] = tested on: OVCAR-5
[3] = tested on: SK-MEL-5
[4] = tested on: Malme-3M
[5] = tested on: SF-539
[6] = tested on: OVCAR-8
[7] = tested on: IGROV-1
[8] = tested on: A549
[9] = tested on: UACC-62
[10] = tested on: HCC 2998
[11] = tested on: SF-295
[12] = tested on: NCI-H23
[13] = tested on: RXF 393
[14] = tested on: HT-29
[15] = tested on: NCI-H522

Measured: GI50

O=C(NCCCOC(=O)CCCCCCCCC(=O)OCCCNC(=O)NC(=O)c1c[nH]c(=O)[nH]c1=O)NC(=O)c1c[nH]c(=O)[nH]c1=O
inactive: [1] > 100 µM | [2] > 100 µM | [3] > 100 µM | [4] > 100 µM | [5] > 100 µM | [6] > 100 µM | [7] > 100 µM | [8] > 100 µM | [9] > 100 µM | [10] > 100 µM | [11] > 100 µM | [12] 45.1 µM

FC(F)(F)C1(Cl)C(Cl)(c2ccccc2)C1(Cl)c1ccccc1 (stereo unspecified)
inactive: [13] 13.9 µM | [1] 19.2 µM | [2] 16.4 µM | [3] 14 µM | [5] 16.1 µM | [14] 14.8 µM | [6] 18 µM | [7] 12.9 µM | [8] 14.7 µM | [9] 15.8 µM | [10] 16.9 µM | [11] 15.8 µM | [12] 14.3 µM

CCN(CC)CC1CCCCCCCCCCC1=O (stereo unspecified)
inactive: [1] > 100 µM | [2] > 100 µM | [3] > 100 µM | [4] > 100 µM | [15] > 100 µM | [14] > 100 µM | [6] > 100 µM | [7] > 100 µM | [8] > 100 µM | [9] > 100 µM | [10] > 100 µM | [11] > 100 µM | [12] > 100 µM

CCOC(=O)C(=C=C=C(c1ccccc1)c1ccccc1)C(=O)OCC
inactive: [13] 10.7 µM | [1] 16.7 µM | [2] 18.1 µM | [3] > 10 µM | [4] 19.8 µM | [5] 18.4 µM | [14] 19.4 µM | [6] 21.9 µM | [7] 18.1 µM | [8] 25 µM | [9] 18.5 µM | [10] 25 µM | [11] 16.3 µM | [12] 38.5 µM

CC(=O)CCC1(c2ccccc2)OC(=O)C(C#N)=C1c1ccccc1 (stereo unspecified)
inactive: [1] > 100 µM | [2] > 100 µM | [3] > 100 µM | [4] > 100 µM | [15] 1.53 µM | [5] > 100 µM | [14] > 100 µM | [6] > 100 µM | [7] > 100 µM | [8] > 100 µM | [9] > 100 µM | [10] > 100 µM | [11] > 100 µM | [12] > 100 µM

COc1ccc2c(c1)CCCN2CCCCCCCCCCN(CCC(C)C)CCC(C)C
inactive: [1] 12.1 µM | [2] 14.9 µM | [3] 6.46 µM | [4] 13.4 µM | [15] 2.2 µM | [5] 3.39 µM | [14] 4.65 µM | [7] 12.2 µM | [8] 11.7 µM | [9] 12.2 µM | [10] 6.98 µM | [11] 14.1 µM | [12] 3.25 µM

CC1NCCc2c1[nH]c1cc(O)ccc21 (stereo unspecified)
inactive: [13] > 100 µM | [1] > 100 µM | [2] > 100 µM | [3] > 100 µM | [4] > 100 µM | [5] > 100 µM | [14] > 100 µM | [6] > 100 µM | [7] > 100 µM | [8] > 100 µM | [9] > 100 µM | [10] > 100 µM | [11] > 100 µM | [12] > 100 µM

Cc1cn(C2CC(N(O)Cc3ccccc3)C(CO)O2)c(=O)[nH]c1=O (stereo unspecified)
inactive: [13] > 100 µM | [1] > 100 µM | [2] > 100 µM | [3] > 100 µM | [5] > 100 µM | [14] > 100 µM | [6] > 100 µM | [7] > 100 µM | [8] > 100 µM | [9] > 100 µM | [10] > 100 µM | [11] > 100 µM | [12] > 100 µM
